# From PubChem BioAssay (NCI)
#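 Test compounds were applied to cells in 96-well plates for 48 hours at 5 doses. TGI: total growth inhibition.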
# How the values were obtained:
# Assay in all cases: DTP human tumour cell line panel, 48 h
# MOLT-4 leukemia = tested on: MOLT-4 leukemia
# HT29 colon = tested on: HT29 colon
# LOX IMVI melanoma = tested on: LOX IMVI melanoma
# HCT-116 colon = tested on: HCT-116 colon
# UACC-257 melanoma = tested on: UACC-257 melanoma
# OVCAR-3 ovarian = tested on: OVCAR-3 ovarian
# RPMI-8226 leukemia = tested on: RPMI-8226 leukemia
# IGROV1 ovarian = tested on: IGROV1 ovarian
# HL-60(TB) leukemia = tested on: HL-60(TB) leukemia
# SK-MEL-28 melanoma = tested on: SK-MEL-28 melanoma
# RXF-631 renal = tested on: RXF-631 renal
# SN12C renal = tested on: SN12C renal
# SF-295 CNS = tested on: SF-295 CNS
# OVCAR-5 ovarian = tested on: OVCAR-5 ovarian
# LXFL 529 NSCLC = tested on: LXFL 529 NSCLC
# SNB-78 CNS = tested on: SNB-78 CNS
# NCI-H522 lung = tested on: NCI-H522 lung
# DLD-1 colon = tested on: DLD-1 colon
# TK-10 renal = tested on: TK-10 renal
# U251 CNS = tested on: U251 CNS
# M19-MEL melanoma = tested on: M19-MEL melanoma
# OVCAR-4 ovarian = tested on: OVCAR-4 ovarian
# SNB-19 CNS = tested on: SNB-19 CNS
# HCT-15 colon = tested on: HCT-15 colon
# EKVX NSCLC = tested on: EKVX NSCLC
# RXF 393 renal = tested on: RXF 393 renal
# 786-0 renal = tested on: 786-0 renal
# MALME-3M melanoma = tested on: MALME-3M melanoma
# CAKI-1 renal = tested on: CAKI-1 renal
# KM20L2 colon = tested on: KM20L2 colon
# CCRF-CEM leukemia = tested on: CCRF-CEM leukemia
# SNB-75 CNS = tested on: SNB-75 CNS
# A498 renal = tested on: A498 renal
# SK-OV-3 ovarian = tested on: SK-OV-3 ovarian
# SW-620 colon = tested on: SW-620 colon
# UACC-62 melanoma = tested on: UACC-62 melanoma
# HOP-62 NSCLC = tested on: HOP-62 NSCLC
# DMS 273 small cell lung = tested on: DMS 273 small cell lung
# XF 498 CNS = tested on: XF 498 CNS
# ACHN renal = tested on: ACHN renal
# HOP-92 NSCLC = tested on: HOP-92 NSCLC
# A549 NSCLC = tested on: A549 NSCLC
# SK-MEL-5 melanoma = tested on: SK-MEL-5 melanoma
# HCC-2998 colon = tested on: HCC-2998 colon
# SK-MEL-2 melanoma = tested on: SK-MEL-2 melanoma
# K-562 leukemia = tested on: K-562 leukemia
# SR leukemia = tested on: SR leukemia
# M14 melanoma = tested on: M14 melanoma
# UO-31 renal = tested on: UO-31 renal
# HOP-18 NSCLC = tested on: HOP-18 NSCLC
# NCI-H23 lung = tested on: NCI-H23 lung
# SF-268 CNS = tested on: SF-268 CNS
# KM12 colon = tested on: KM12 colon
# NCI-H226 lung = tested on: NCI-H226 lung
# COLO 205 colon = tested on: COLO 205 colon
# NCI-H460 lung = tested on: NCI-H460 lung
# SF-539 CNS = tested on: SF-539 CNS
# OVCAR-8 ovarian = tested on: OVCAR-8 ovarian
# DMS 114 small cell lung = tested on: DMS 114 small cell lung
smiles,measurement,setting,value
O=c1[nH]c(=O)n(C2OC(CO)C(O)C2O)cc1OCc1ccccc1 (centres undefined),TGI,MOLT-4 leukemia,> 100 µM
same,TGI,HT29 colon,> 100 µM
same,TGI,LOX IMVI melanoma,> 31.6 µM
same,TGI,HCT-116 colon,> 83.2 µM
same,TGI,UACC-257 melanoma,> 100 µM
same,TGI,OVCAR-3 ovarian,> 100 µM
same,TGI,RPMI-8226 leukemia,> 73.3 µM
same,TGI,IGROV1 ovarian,> 100 µM
same,TGI,HL-60(TB) leukemia,> 68.6 µM
same,TGI,SK-MEL-28 melanoma,> 100 µM
same,TGI,RXF-631 renal,> 100 µM
same,TGI,SN12C renal,> 100 µM
same,TGI,SF-295 CNS,> 100 µM
same,TGI,OVCAR-5 ovarian,> 100 µM
same,TGI,LXFL 529 NSCLC,> 100 µM
same,TGI,SNB-78 CNS,> 100 µM
same,TGI,NCI-H522 lung,> 100 µM
same,TGI,DLD-1 colon,> 78 µM
same,TGI,TK-10 renal,> 100 µM
same,TGI,U251 CNS,> 72.2 µM
same,TGI,M19-MEL melanoma,> 100 µM
same,TGI,OVCAR-4 ovarian,> 100 µM
same,TGI,SNB-19 CNS,> 100 µM
same,TGI,HCT-15 colon,> 77.7 µM
same,TGI,EKVX NSCLC,> 100 µM
same,TGI,RXF 393 renal,> 83.5 µM
same,TGI,786-0 renal,> 100 µM
same,TGI,MALME-3M melanoma,> 100 µM
same,TGI,CAKI-1 renal,> 100 µM
same,TGI,KM20L2 colon,> 100 µM
same,TGI,CCRF-CEM leukemia,> 78.1 µM
same,TGI,SNB-75 CNS,> 100 µM
same,TGI,A498 renal,> 100 µM
same,TGI,SK-OV-3 ovarian,> 100 µM
same,TGI,SW-620 colon,> 71.8 µM
same,TGI,UACC-62 melanoma,> 100 µM
same,TGI,HOP-62 NSCLC,> 100 µM
same,TGI,DMS 273 small cell lung,> 100 µM
same,TGI,XF 498 CNS,> 100 µM
same,TGI,ACHN renal,> 100 µM
same,TGI,HOP-92 NSCLC,> 100 µM
same,TGI,A549 NSCLC,> 100 µM
same,TGI,SK-MEL-5 melanoma,> 100 µM
same,TGI,HCC-2998 colon,> 100 µM
same,TGI,SK-MEL-2 melanoma,> 100 µM
same,TGI,K-562 leukemia,> 100 µM
same,TGI,SR leukemia,> 67.5 µM
same,TGI,M14 melanoma,> 100 µM
same,TGI,UO-31 renal,> 100 µM
same,TGI,HOP-18 NSCLC,> 100 µM
same,TGI,NCI-H23 lung,> 100 µM
same,TGI,SF-268 CNS,> 100 µM
same,TGI,KM12 colon,> 100 µM
same,TGI,NCI-H226 lung,> 100 µM
same,TGI,COLO 205 colon,> 85.2 µM
same,TGI,NCI-H460 lung,> 100 µM
same,TGI,SF-539 CNS,> 100 µM
same,TGI,OVCAR-8 ovarian,> 100 µM
same,TGI,DMS 114 small cell lung,> 72.2 µM
